# Data reported in US20020006930A1, “Method for stimulating liver regeneration” (priority 2000, published 2002).
# Entries after “also recorded” stand apart in the source; their conditions may differ.
# Tests used:
# [1] = system: c-fos mRNA; assay: Hepatic c-fos mRNA expression after 2/3 PHX (northern blot); assay type: in vivo, rat
# Method: Animals were divided into four groups: sham procedures, PHX, PHX+L-NAME (Sigma), a Nos antagonist, and PHX+L-NAME+3morpholinosydnonimine (SIN-1, Alexis Corp.), a NO donor. Animals were anesthetized by sodium pentobarbital (6.5 mg/100 g. i.p; MTC Pharmaceuticals). Anesthesia was maintained using a continuous i.v. infusion (Harvard infusion pump, model 2720) of sodium pentobarbital (1.08 mg/ml saline, 1.0 ml/100 g/hr) via a cannula inserted into the femoral vein (PE50), Intramedic Clay Adams Brand, Becton-Dickinson). All surgical procedures were performed between the 10:00 am and 2:00 pm. Arterial blood pressure was monitored via a cannula (PE50, Intramedic Clay Adams Brand, Becton-Dickson) inserted into the femoral artery. To facilitate breathing a tracheotomy was performed using a polyethylene tube (PE240, Intramedic Clay Adams Brand, Becton-Dickinson) inserted into the trachea. Body temperature was maintained at 37.5±0.5° C. by the use of a rectal thermometer (Hanna Instruments) and a heated surgical table (Harvard Apparatus). Laparotomy was performed and a 24 G cather (Optiva™, Johnson and Johnson Medical Inc.) was inserted into the portal vein. The rat was then allowed to stabilize for 30 minutes.
# A 0.5 ml bolus of L-NAME (5.0 mg/kg), or saline was infused intravenously over two minutes. Ten minutes later, PHX (resection of the left lateral and median lobes as described by Higgins and Anderson (20) or gentle manipulation of the liver lobes was performed. Resected lobes were litigated using black braided surgical silk (size 0, Ethicon) and excised. […] Fifteen minutes after PHX, or sham manipulation, the remaining liver was removed, slashed and blotted to remove blood, and immediately frozen on dry ice. Portal venous pressure (PVP) was measured, using an R-611 SensorMedics Dynograph Recorder, immediately before and after PHX.
# For additional experiments involving PHX+L-NAME, the surgical procedure was exactly the same at that for the ⅔ PHX described above, except that the remaining liver as removed at 30, 45 or 60 minutes after PHX.
# Total RNA was isolated by a method modified from Chirgwin et al. (23). Liver tissue was homogenized (Brinkman, Polytron) in lithium chloride/urea (3M/6M; Sima). The homogenized was centrifuged at 25000 rpm (Brinkman L8-70M Ultracentrifuge) for 20 minutes at 4° C. […] The concentration of the RNA was then determined using a spectrophotometer (Ultrospec2000, Pharamacia Biotech). […] The membranes were prehybridized at 42° C. for 3 hours in prehybridization buffer consisting of 5×SSC, 7% SDS (Sigma), sheared denatured salmon sperm DNA (100 μg/ml, Gibco BRL) and 5×Denhardt's solution (Sigma). c-fos mRNA was detected using a 2.1 kb cDNA probe (kindly provided by Dr. C Steer, university of Minnesota, Minneapolis, Minn.). […]
# [2] = system: proliferative factors (PF) in the plasma of PHX rats; assay: Hepatocyte primary culture bioassay for proliferative factor (PF) production in plasma after 2/3 PHX; assay type: in vivo, rat; conditions: for reversal of L-NAME-induced blockade/inhibition: PHX rats given L-NAME plus L-arginine, in vivo
# Method: The production of proliferative factors (PFs) was determined as previously described (21) . Briefly, PHX or PVL was performed as described above. Four hours after PHX or PVL, the diaphragm was cut and a blood sample drawn ([…] per rat) from the right ventricle of the heart using a 21 G 1.5-inch needle and a 10 ml sterile syringe. In a tissue culture hood, the blood was transferred to a sterile centrifuge tube, centrifuged at 2500 g for 20 minutes, and plasma stored at −20° C. The collagenase perfusion and hepatocyte isolation method was modified from Seglen (22), and has been previously described (21). Male Sprahue-Dawley rats (250 g) were anesthetized using sodium pentobarbital (6.5 mg/100 g, i.p.) and livers were perfused according to Seglen (22). Isolated cells were seeded (1×10^5 cells/ml, 2 ml per well) in six-well culture plates and allowed to attach to the plate overnight at 37° C. The next day, unattached cells were washed out of the wells and the starting viable cell number was counted from three randomly selected wells. Trypsin-EDTA (Gibco, BRL) was used to isolate attached hepatocytes from the plate and the hepatocytes were counted using a hemocytometer (Fisher Scientific). Fresh medium and plasma samples from PHX rats (10% final concentration) were added to the rest of the wells (three wells per sample). The medium, containing plasma, was changed at 24 hours. The attached viable cells were harvested at 48 hours. and the final count of viable hepatocytes was determined. The PF levels were expressed as net cell proliferation (viable cell count per well at 48 hours minus starting cell count per well).
# The experiment was aimed to develop and optimize a hepatocyte primary culture bioassay to detect proliferative factors (PF) in the plasma or serum of partial hepatectomized (PHX) rats, which could serve as an index of the initiation of liver regeneration cascade.
# The bioassay detects the presence of PF by measuring hepatocyte proliferation through a directly counting cell number increases over the culture period using a hemacytometer. The procedure of liver perfusion and hepatocyte purification was adopted from Seglen (1976 Methods Cell Biol. 13, 29) using Sprague Dawley rats. The purified hepatocytes ([…]) were seeded into 6-well culture plates and allowed to attach to the plate overnight at 37° C. The unattached cells were then washed out and the starting cell count was determined from 3 randomly picked wells in the culture after trypsin digestion. Sera collected from ⅔ PHX rats at 1-6 hours post PHX was added to the culture. With a medium change at 24 hours, the final cell counting was performed at 48 hours. The net cell proliferation was expressed as the difference between the counts at 48 hours and starting at hour (0 hr).
# The optimized assay conditions ([…] plating concentration, 10% serum, 48 hr culture) were able to detect an increase of PF in PHX rat serum between 1-4 hours after PHX, with a peak activity at 4 hours (unpooled serum n=5/time point, pooled n=5/point). The assay has a high sensitivity to detect PF in ⅓ PHX rat serum (n=7), which was not detectable using the conventional DNA synthesis method.
# (§1) To test the hypotheses, an […] hepatocyte primary culture bioassay was developed to detect PF in the plasma of PHX rats as an index of the initial trigger. The PHX surgery was performed according to the conventional method. Liver weight was also measured from the post PHX recovered rats to directly assess liver regeneration in vivo. The level of flow-dependent factors (e.g. adenosine (Ado), NO) was pharmacologically manipulated to test their roles in triggering the liver regeneration cascade.
# [3] = system: cultured hepatocytes; assay: Cultured hepatocytes exposed to L-NAME in vitro; assay type: cell-based, rat; conditions: L-NAME at concentrations estimated to occur in the in vivo experiments
# Text: To determine whether NO served as a trigger to initiate a further cascade of events or whether it served as a direct proliferating stimulus on hepatocytes, the cultured hepatocytes were exposed to concentrations of L-NAME estimated to occur in the in vivo experiments.
# [4] = system: two-thirds PHX rats; assay: Restoration of liver weight and survival after two-thirds PHX; assay type: in vivo, rat; conditions: for post surgery survival rate: 36-44 hours
# Method: The extent of liver regeneration can be assessed from a number of parameters, the most direct being the restoration of liver weight following PHX. […] Unfortunately, the liver regeneration studies are made complex by the well known observation that NO synthase blockade can potentiate the toxic reaction to inflammatory conditions. […] This can have been a factor in these studies where 6 of 14 rats died in the high dose group between 36 and 44 hours. These animals had only 18±4.7% regeneration. The ability to inhibit regeneration is compatible with a triggering role for NO.
# as §1
# [5] = system: proliferative factor (PF) activity in blood after PVL; assay: Hepatocyte bioassay for PF activity in blood after selective portal vein branch ligation (PVL); assay type: in vivo, rat
# Text: Rats were divided into four groups: sham PVL, PVL, PVL+L-NAME and PVL+L-NAME+SIN-1. Surgical procedures were the same as described for PHX except that liver lobes were not ligated and […]. Rather, the left branch of the portal vein was carefully isolated and […]. The left branch of the portal vein was carefully isolated from the surrounding hepatic artery, hepatic nerves, bile duct and lymphatics. A thread was slipped around the left branch of the portal vein and the animal was allowed to recover for one hour. Following the recovery period, saline or L-NAME was administered as described for the PHX group, and the PVL+L-NAME+SIN-1 group received SIN-1 as indicated above. […] PVP was measured immediately before and after PVL, as described for PHX surgery.
# The production of proliferative factors (PFs) was determined as previously described (21) . […] The next day, unattached cells were washed out of the wells and the starting viable cell number was counted from three randomly selected wells. Trypsin-EDTA (Gibco, BRL) was used to isolate attached hepatocytes from the plate and the hepatocytes were counted using a hemocytometer (Fisher Scientific). […] The attached viable cells were harvested at 48 hours. and the final count of viable hepatocytes was determined. The PF levels were expressed as net cell proliferation (viable cell count per well at 48 hours minus starting cell count per well).
structure (smiles),measurement,setting,value
"CC(=O)NC(C(=O)O)C(C)(C)SN=O (racemic) [SNAP, S-nitroso-N-acetyl-D,L-penacillamine]",c-fos mRNA expression,"[1]; after PHX, SNAP 5 mg/kg",potentiates
same,c-fos mRNA expression,"[1]; sham operated livers, SNAP 5 mg/kg",no effect
"Nc1ncnc2c1ncn2[C@@H]1O[C@H](CO)[C@@H](O)[C@H]1O [Ado, adenosine]",effect on PF generation,"[2]; 2/3 PHX rats, adenosine level manipulated",no significant effects
"COC(=O)[C@@H](N)CCCNC(=N)N[N+](=O)[O-] [L-NAME, N-nitro-Larginine methyl ester]",appearance/generation of PF in the plasma,"[2]; two-thirds PHX rats, L-NAME i.v. at early time points after PHX, 4 hours peak PF",block 4 hours peak PF generation; also recorded: blocked the appearance of PF in the plasma; also recorded: inhibited
same,dose giving maximum inhibition of PF appearance,"[2]; two-thirds PHX rats, i.v., not further inhibited by 5.0 mg/kg",2.5 mg/kg
same,"c-fos mRNA expression at 30, 45 and 60 minutes compared to 15 minutes after PHX",[1]; L-NAME 5.0 mg/kg i.v. prior to PHX,no difference in c-fos mRNA expression
same,direct effect on hepatocyte proliferation in vitro,[3],positive proliferative stimulus
same,post surgery survival rate,"[4]; L-NAME + PHX group (n=14), PHX control 100%",about 50%
same,post surgery survival rate,[4]; L-NAME-no-PHX control group (n=6),100%
same,restoration of liver weight (regeneration),"[4]; 48 hours post-PHX, low dose of L-NAME",did not significantly inhibit regeneration
same,rats that died,"[4]; high dose L-NAME group after PHX, between 36 and 44 hours",6 of 14
same,regeneration in animals that died,"[4]; high dose L-NAME group, rats that died between 36 and 44 hours",18±4.7%
same,PF activity in blood,"[5]; four hours after, L-NAME",inhibited
N=C(N)NCCC[C@H](N)C(=O)O [L-arginine],reversal of L-NAME-induced blockade/inhibition,[2],reversed the L-NAME inhibitory effect
same,reversal of L-NAME-induced blockade/inhibition,[2]; listed as L-Arginine,significantly reversed the inhibition by L-NAME
"N=c1c[n+](N2CCOCC2)[n-]o1 [SIN-1, 3-morpholinosydnonimine]",reversal of L-NAME inhibition of PF activity,"[2]; PHX, PF activity in blood four hours after",reversed the inhibition
same,reversal of L-NAME inhibition of PF activity,[5]; PF activity in blood four hours after,reversed the inhibition
CCCOc1ccccc1-c1nc2nn[nH]c2c(=O)[nH]1 [Zaprinast],c-fos mRNA expression,"[1]; after ⅔ PHX, Zaprinast 10 and 30 mg/kg",potentiated
